Results from patent publication US20050032138A1 (priority 2003, published 2005).
Where two headings read alike, the source gives them in different places.

Legend:
[1] = target: PrPc (Mesocricetus auratus, UniProt P04273)
[2] = target: T1, PrPc (Homo sapiens, UniProt P04156)
[3] = target: T1, PrPc; remark: listed apart in the source
[4] = system: PrPc and PrPsc
[5] = target: PrPc and PrPsc (Homo sapiens, UniProt P04156)
[6] = system: PrPres
[7] = Fast Red staining with 3F4, red/pink beads indicate bound native PrPc or antibody, scrapie-infected hamster brain homogenate

Chain of PrPc (Mesocricetus auratus, UniProt P04273) (P04273 23-254 limits assumed): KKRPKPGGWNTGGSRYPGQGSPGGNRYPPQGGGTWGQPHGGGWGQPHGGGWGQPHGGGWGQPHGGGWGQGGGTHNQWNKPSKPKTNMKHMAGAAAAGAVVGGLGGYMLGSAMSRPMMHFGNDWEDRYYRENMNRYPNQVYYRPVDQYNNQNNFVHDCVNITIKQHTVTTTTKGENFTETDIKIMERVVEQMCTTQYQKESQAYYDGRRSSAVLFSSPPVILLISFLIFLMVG

Substance	Bead Color [1]	Intensity of Chemiluminescent Signal after Denaturing [4]	also measured
DVR	White	Strong	Bead colour under the microscope following on-bead detection [2]: white; Signal on the first support [3]: weak; Isoform binding preference concluded from first and second support signals [5]: preferentially binds PrPsc; Signal on the second support following denaturation and transfer [5]: strong
EHATYRA	White	Strong	
EWWETV	White	Medium	
FPK			Beads identified as PrPsc-specific binders (film 2 signal from PrPres after PK) [6]: specific for PrPsc
FQGTREA	White	Strong	
HWK			Beads identified as PrPsc-specific binders (film 2 signal from PrPres after PK) [6]: specific for PrPsc
KWATRYA	White	Strong	
LLR			Beads identified as PrPsc-specific binders (film 2 signal from PrPres after PK) [6]: specific for PrPsc
NSTKFDA	Pink	Strong	
RWD		Strong	Bead Color [1, 7]: Bright pink
RWEREDA	Pink	Strong	
SVYQLDA	White	Medium	
TGTNRYA	White	Strong	
VARENIA	White	Strong	
WEE			Beads identified as PrPsc-specific binders (film 2 signal from PrPres after PK) [6]: specific for PrPsc
YID		Strong	Bead Color [1, 7]: Bright pink
